Data reported in patent US20060005273A1, “Novel maize split-seed explant and methods for in vitro regeneration of maize” (University of Toledo, priority 2004, published 2006).

Columns and labels:
[1] = test system: embryogenic callus from maize split-seed explant; assay: shoot regeneration from embryogenic callus on callus/somatic embryo shoot induction medium; type: cell-based; settings: maximum period of two months
Description: Embryogenic calli/somatic embryos are transferred to a “callus/somatic embryo shoot induction medium” (which is an embodiment of the present and is described below) and allowed to develop shoots. The cultures are maintained at 27° C. under 16-hour soft white light. Shoot regeneration frequency is determined by calculating the number of embryogenic calli producing shoots and the number of shoots per callus.
A “callus/somatic embryo shoot induction medium” comprises MS basal salts and B5 vitamins supplemented with a cytokinin, or mixtures of cytokinins. A preferred cytokinin is BAP. The concentration of a cytokinin preferably ranges from 0.1 mg/l to 2.0 mg/l. Preferably the concentration of a cytokinin ranges from […] and most preferably ranges from 0.75 mg/l to 1.0 mg/l. In a preferred embodiment, a cytokinin is BAP is preferably at a concentration of 1.0 mg/l.
White and soft callus formed on the surface of split-seed explants is removed after one week for further growth on “primary calli maintenance medium” (FIG. 3B). Callus initiation from the split-seed is observed in four day old cultures. After one month in culture, highly proliferated calli (FIG. 3C) are transferred to an “embryogenic callus induction medium” containing 2,4-D at 0.1 mg/l and BAP at 0.5 mg/l to maintain embryogenic callus (FIG. 3D). The callus is sub-cultured every two weeks. […]

maize split-seed explant = assay: direct multiple shoot formation on split-seed explant shoot induction medium; type: cell-based; settings: BAP alone
Description: Another embodiment of the present invention provides a “split-seed explant shoot induction medium.” When a split-seed explant is exposed to a “split-seed explant shoot induction medium” and incubated under a 16-h soft white light at 27° C., the split-seed explant generates at least one shoot. A “split-seed explant shoot induction medium” comprises MS basal salts and B5 vitamins supplemented with a cytokinin or mixtures of cytokinins. A preferred cytokinin is BAP. The concentration of a cytokinin may range from 1.0 mg/l to 6.0 mg/l. Preferably the concentration of a cytokinin ranges from 1.0 mg/l to 5.0 mg/l and more preferably ranges from 1.5 mg/l to 4.5 mg/l. In a preferred embodiment, a cytokinin is BAP and is at a concentration of 3.0 mg/l to 4.0 mg/l. In a preferred embodiment, BAP is preferably at a concentration of 4.0 mg/l. A “split-seed explant shoot induction medium” further comprises glycine at a preferable concentration of 1.0 mg/l, casein hydrolysate at a preferable concentration of 400 mg/l, and sucrose at a preferable concentration of 30 g/l. A “split-seed explant shoot induction medium” may be solidified with 8.0 g/l agar. The pH of the medium is adjusted to 5.8 prior to adding the agar and the medium is autoclaved at 121° C. for 20 minutes.
In another embodiment, a “split-seed explant shoot induction medium” further comprises 6-furfurylaminopurine (“kinetin”). […]

Which results are given for `c1ccc(CNc2ncnc3nc[nH]c23)cc1` [BAP, 6-benzylamino purine]?
BAP concentration giving the highest number of shoots [1]: 1.0 mg/L; multiple shoot induction (maize split-seed explant): induces multiple shoots
